Data: PubChem BioAssay (NCI)
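All cell lines were grown in 96-well plates and treated with compound for 48 hours. TGI: total growth inhibition.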

Assays:
Test in all cases: DTP human tumour cell line panel, 48 h
IGROV1 ovarian = test system: IGROV1 ovarian
MDA-MB-231 breast = test system: MDA-MB-231 breast
PC-3 prostate = test system: PC-3 prostate
MDA-N = test system: MDA-N
OVCAR-8 ovarian = test system: OVCAR-8 ovarian
DU-145 prostate = test system: DU-145 prostate
HS 578T breast = test system: HS 578T breast
KM12 colon = test system: KM12 colon
SK-MEL-28 melanoma = test system: SK-MEL-28 melanoma
786-0 renal = test system: 786-0 renal
SN12C renal = test system: SN12C renal
NCI-H522 lung = test system: NCI-H522 lung
SF-268 CNS = test system: SF-268 CNS
SK-OV-3 ovarian = test system: SK-OV-3 ovarian
HL-60(TB) leukemia = test system: HL-60(TB) leukemia
MDA-MB-435 = test system: MDA-MB-435
LOX IMVI melanoma = test system: LOX IMVI melanoma
NCI/ADR-RES ovarian = test system: NCI/ADR-RES ovarian
CCRF-CEM leukemia = test system: CCRF-CEM leukemia
HT29 colon = test system: HT29 colon
TK-10 renal = test system: TK-10 renal
HOP-92 NSCLC = test system: HOP-92 NSCLC
A498 renal = test system: A498 renal
SK-MEL-2 melanoma = test system: SK-MEL-2 melanoma
OVCAR-5 ovarian = test system: OVCAR-5 ovarian
HOP-62 NSCLC = test system: HOP-62 NSCLC
OVCAR-4 ovarian = test system: OVCAR-4 ovarian
UACC-62 melanoma = test system: UACC-62 melanoma
MCF7 breast = test system: MCF7 breast
RXF 393 renal = test system: RXF 393 renal
HCT-15 colon = test system: HCT-15 colon
UO-31 renal = test system: UO-31 renal
SF-295 CNS = test system: SF-295 CNS
OVCAR-3 ovarian = test system: OVCAR-3 ovarian
NCI-H226 lung = test system: NCI-H226 lung
SR leukemia = test system: SR leukemia
SW-620 colon = test system: SW-620 colon
A549 NSCLC = test system: A549 NSCLC
T-47D breast = test system: T-47D breast
NCI-H23 lung = test system: NCI-H23 lung
MOLT-4 leukemia = test system: MOLT-4 leukemia
CAKI-1 renal = test system: CAKI-1 renal
RPMI-8226 leukemia = test system: RPMI-8226 leukemia
EKVX NSCLC = test system: EKVX NSCLC
SF-539 CNS = test system: SF-539 CNS
M14 melanoma = test system: M14 melanoma
U251 CNS = test system: U251 CNS
SNB-75 CNS = test system: SNB-75 CNS
UACC-257 melanoma = test system: UACC-257 melanoma
BT-549 breast = test system: BT-549 breast
SK-MEL-5 melanoma = test system: SK-MEL-5 melanoma
MALME-3M melanoma = test system: MALME-3M melanoma
HCT-116 colon = test system: HCT-116 colon
HCC-2998 colon = test system: HCC-2998 colon
COLO 205 colon = test system: COLO 205 colon
SNB-19 CNS = test system: SNB-19 CNS
NCI-H460 lung = test system: NCI-H460 lung
ACHN renal = test system: ACHN renal
K-562 leukemia = test system: K-562 leukemia

SMILES: Cc1sccc1C(=S)Nc1ccc(Cl)c(/C=N/OC(C)(C)C)c1
- TGI (IGROV1 ovarian): 29.4 µM
- TGI (MDA-MB-231 breast): 27 µM
- TGI (PC-3 prostate): 32.5 µM
- TGI (MDA-N): 26.9 µM
- TGI (OVCAR-8 ovarian): 34.1 µM
- TGI (DU-145 prostate): 29 µM
- TGI (HS 578T breast): 62.3 µM
- TGI (KM12 colon): 28.8 µM
- TGI (SK-MEL-28 melanoma): 71 µM
- TGI (786-0 renal): 49.4 µM
- TGI (SN12C renal): 25.6 µM
- TGI (NCI-H522 lung): 26.5 µM
- TGI (SF-268 CNS): 43.9 µM
- TGI (SK-OV-3 ovarian): 79.3 µM
- TGI (HL-60(TB) leukemia): 38.6 µM
- TGI (MDA-MB-435): 50.9 µM
- TGI (LOX IMVI melanoma): 73.9 µM
- TGI (NCI/ADR-RES ovarian): 45.1 µM
- TGI (CCRF-CEM leukemia): > 100 µM
- TGI (HT29 colon): 27.6 µM
- TGI (TK-10 renal): 36.9 µM
- TGI (HOP-92 NSCLC): 35.3 µM
- TGI (A498 renal): 46.8 µM
- TGI (SK-MEL-2 melanoma): 28.8 µM
- TGI (OVCAR-5 ovarian): 34.7 µM
- TGI (HOP-62 NSCLC): 30.6 µM
- TGI (OVCAR-4 ovarian): 32 µM
- TGI (UACC-62 melanoma): 34.2 µM
- TGI (MCF7 breast): 26.7 µM
- TGI (RXF 393 renal): 39 µM
- TGI (HCT-15 colon): 29 µM
- TGI (UO-31 renal): 25 µM
- TGI (SF-295 CNS): 37.3 µM
- TGI (OVCAR-3 ovarian): 26.8 µM
- TGI (NCI-H226 lung): 29.3 µM
- TGI (SR leukemia): 54.7 µM
- TGI (SW-620 colon): > 100 µM
- TGI (A549 NSCLC): 63.5 µM
- TGI (T-47D breast): 22.8 µM
- TGI (NCI-H23 lung): 34.5 µM
- TGI (MOLT-4 leukemia): 30.7 µM
- TGI (CAKI-1 renal): 24.4 µM
- TGI (RPMI-8226 leukemia): 27 µM
- TGI (EKVX NSCLC): 42.4 µM
- TGI (SF-539 CNS): > 100 µM
- TGI (M14 melanoma): 33.9 µM
- TGI (U251 CNS): 62.1 µM
- TGI (SNB-75 CNS): > 100 µM
- TGI (UACC-257 melanoma): 35.1 µM
- TGI (BT-549 breast): 35.2 µM
- TGI (SK-MEL-5 melanoma): 25.9 µM
- TGI (MALME-3M melanoma): 31.1 µM
- TGI (HCT-116 colon): > 100 µM
- TGI (HCC-2998 colon): 30 µM
- TGI (COLO 205 colon): 27.3 µM

SMILES: C/C(=N\NC(=S)NCCNC(=S)N/N=C(\C)c1ccccn1)c1ccccn1
- TGI (IGROV1 ovarian): > 31.5 µM
- TGI (MDA-MB-231 breast): > 70.9 µM
- TGI (PC-3 prostate): > 100 µM
- TGI (MDA-N): > 100 µM
- TGI (OVCAR-8 ovarian): > 100 µM
- TGI (DU-145 prostate): > 100 µM
- TGI (HS 578T breast): > 100 µM
- TGI (KM12 colon): > 100 µM
- TGI (SK-MEL-28 melanoma): > 100 µM
- TGI (786-0 renal): 6.05 µM
- TGI (SN12C renal): 7.31 µM
- TGI (NCI-H522 lung): > 100 µM
- TGI (SF-268 CNS): 49 µM
- TGI (SK-OV-3 ovarian): > 100 µM
- TGI (HL-60(TB) leukemia): > 22.6 µM
- TGI (MDA-MB-435): > 100 µM
- TGI (LOX IMVI melanoma): 30.9 µM
- TGI (NCI/ADR-RES ovarian): 6.06 µM
- TGI (CCRF-CEM leukemia): > 26.1 µM
- TGI (HT29 colon): > 100 µM
- TGI (TK-10 renal): > 30 µM
- TGI (HOP-92 NSCLC): > 100 µM
- TGI (A498 renal): 37.5 µM
- TGI (SNB-19 CNS): > 100 µM
- TGI (SK-MEL-2 melanoma): > 100 µM
- TGI (OVCAR-5 ovarian): > 100 µM
- TGI (HOP-62 NSCLC): 12.5 µM
- TGI (OVCAR-4 ovarian): > 71.2 µM
- TGI (UACC-62 melanoma): 11.7 µM
- TGI (MCF7 breast): > 100 µM
- TGI (RXF 393 renal): > 100 µM
- TGI (HCT-15 colon): > 25.9 µM
- TGI (UO-31 renal): > 100 µM
- TGI (SF-295 CNS): > 100 µM
- TGI (OVCAR-3 ovarian): > 100 µM
- TGI (NCI-H226 lung): > 26.9 µM
- TGI (SR leukemia): 2.53 µM
- TGI (NCI-H460 lung): > 20.2 µM
- TGI (SW-620 colon): > 100 µM
- TGI (ACHN renal): > 28.5 µM
- TGI (K-562 leukemia): > 100 µM
- TGI (A549 NSCLC): > 100 µM
- TGI (T-47D breast): > 29.3 µM
- TGI (NCI-H23 lung): > 63.8 µM
- TGI (MOLT-4 leukemia): > 26 µM
- TGI (CAKI-1 renal): > 89.7 µM
- TGI (RPMI-8226 leukemia): 9.67 µM
- TGI (EKVX NSCLC): > 100 µM
- TGI (SF-539 CNS): 6.63 µM
- TGI (M14 melanoma): 4.27 µM
- TGI (U251 CNS): > 48.6 µM
- TGI (SNB-75 CNS): 11.2 µM
- TGI (UACC-257 melanoma): 22.3 µM
- TGI (BT-549 breast): 47.8 µM
- TGI (MALME-3M melanoma): > 78.8 µM
- TGI (HCT-116 colon): 31.4 µM
- TGI (HCC-2998 colon): > 100 µM
- TGI (COLO 205 colon): > 29.2 µM
